Entries after “also recorded” stand apart in the source; their conditions may differ.
Tests used:
[1] = target: T1, rTR alpha (Rattus norvegicus, UniProt P63059); assay: ^125I-T3 binding to in vitro translated rTR alpha (Scatchard and competition); conditions: for competition for T3 binding to rTR alpha by excess compound: excess competitor
T1 construct: made in house; host or cells: rabbit reticulocyte lysate (SP6 transcripts of rbeA12B)
T1 sequence (P63059 1-410 isoform P63059-2): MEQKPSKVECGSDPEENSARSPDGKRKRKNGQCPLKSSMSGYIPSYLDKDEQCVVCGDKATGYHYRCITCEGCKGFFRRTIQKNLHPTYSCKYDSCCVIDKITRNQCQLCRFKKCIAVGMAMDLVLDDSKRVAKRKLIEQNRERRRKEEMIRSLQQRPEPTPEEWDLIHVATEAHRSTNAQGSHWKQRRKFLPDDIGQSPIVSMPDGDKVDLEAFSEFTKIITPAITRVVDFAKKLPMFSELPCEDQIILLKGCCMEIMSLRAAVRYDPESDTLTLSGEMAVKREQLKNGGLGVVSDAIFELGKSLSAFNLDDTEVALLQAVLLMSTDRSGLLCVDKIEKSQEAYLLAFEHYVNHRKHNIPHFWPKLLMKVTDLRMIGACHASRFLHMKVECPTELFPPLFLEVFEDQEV
Source text: In vitro translation and thyroid hormone binding of rTR alpha FIG. 69 rTR alpha was transcribed in vitro and translated in a rabbit reticulocyte lysate. […] Lane 1, no added RNA; lane 2, rbeA12, which contains the entire 5′ untranslated region; lane 3, rbeA12B, which contains only 97 bp of 5′ untranslated sequence. […] Samples from rbeA12B programmed lysates were mixed with increasing concentrations of unlabeled thyroid hormone or analogs to compete with labeled hormone. […] In vitro transcription and translation and hormone binding were performed as described (22, 23).
23. For in vitro transcription, the entire EcoRI insert of rbeA12 was cloned into pGEM1 (Promega Biotec). […] For thyroid hormone binding, transcriptions were performed with SP6 polymerase and 5 to 10 micrograms of rbeA12B linearized with SstI. […] Thyroid hormone binding for both the Scatchard and competition analyses were determined in the same manner, except that unlabeled protein was used for the Scatchard analysis. […] Specific hormone binding was determined by adding a 1000-fold excess of unlabeled hormone and assayed by counting radioactivity eluting in the excluded volume from a Sephadex G-25 fine (Pharmacia) 0.9-by 4.0-cm. column.

[2] = target: T2, hMR (Homo sapiens, UniProt P08235); assay: [^3H]aldosterone binding and steroid competition in extracts of pRShMR-transfected COS cells; set-up: expressed in transfected cells; host or cells: COS cells transfected with pRShMR (DEAE-dextran); conditions: 1-, 10-, or 100-fold molar excess of unlabeled steroid
T2 sequence (P08235 1-984): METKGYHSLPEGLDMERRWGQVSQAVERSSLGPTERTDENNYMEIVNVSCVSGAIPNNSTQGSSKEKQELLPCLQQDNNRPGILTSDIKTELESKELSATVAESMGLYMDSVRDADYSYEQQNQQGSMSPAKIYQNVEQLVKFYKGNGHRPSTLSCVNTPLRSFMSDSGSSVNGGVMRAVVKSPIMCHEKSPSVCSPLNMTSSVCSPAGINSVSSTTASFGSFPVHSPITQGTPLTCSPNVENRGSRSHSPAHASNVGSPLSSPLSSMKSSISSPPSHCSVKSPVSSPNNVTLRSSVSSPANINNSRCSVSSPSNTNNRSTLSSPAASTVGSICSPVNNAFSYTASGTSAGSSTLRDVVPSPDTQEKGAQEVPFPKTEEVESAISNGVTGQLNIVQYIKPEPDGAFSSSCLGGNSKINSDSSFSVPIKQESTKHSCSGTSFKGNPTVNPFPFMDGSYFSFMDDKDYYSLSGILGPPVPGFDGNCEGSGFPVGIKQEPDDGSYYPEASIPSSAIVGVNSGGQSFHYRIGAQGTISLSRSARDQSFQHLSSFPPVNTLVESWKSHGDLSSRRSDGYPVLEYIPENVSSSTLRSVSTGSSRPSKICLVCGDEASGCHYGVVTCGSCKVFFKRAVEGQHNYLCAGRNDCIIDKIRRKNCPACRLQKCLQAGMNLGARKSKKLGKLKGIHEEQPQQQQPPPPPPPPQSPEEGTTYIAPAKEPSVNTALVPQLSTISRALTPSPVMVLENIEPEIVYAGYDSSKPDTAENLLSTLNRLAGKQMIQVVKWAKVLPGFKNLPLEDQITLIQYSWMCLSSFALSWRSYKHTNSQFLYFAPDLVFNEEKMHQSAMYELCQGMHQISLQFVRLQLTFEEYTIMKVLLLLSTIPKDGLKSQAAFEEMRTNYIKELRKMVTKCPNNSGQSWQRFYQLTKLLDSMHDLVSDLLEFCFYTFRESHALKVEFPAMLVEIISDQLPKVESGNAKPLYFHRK
Description: Ligand specificity of the hMR protein was determined by preparing cytosol extracts from COS cells transfected with pRShMR. Two days after transfection, cells were harvested, and hormone binding was measured by a dextran-treated charcoal assay. […] This provided a measure of the relative affinity of each of these steroids for hMR.
Steroid-binding properties of expressed hMR. FIG. 38 Structure of pRShMR, the hMR expression plasmid (41). […] Each point was assayed in triplicate with 100 micrograms of extract protein in a 200-microliter incubation at 0° C. for 2.5 hours. […] The results of two independent trials representative of these competition experiments are shown. Cold competitor was present in 1-, 10-, or 100-fold molar excess. […] Subconfluent COS cells were transfected by the DEAE-dextran method (42) with 10 micrograms of pRShMR per dish. Cells were maintained for 2 days in DMEM (Dulbecco's modification of Eagle's minimum essential medium) with 5 percent charcoal-treated fetal calf serum, then harvested in […] tris-HCl. (pH 7.8), 10 nM NaCl, 1 mM EDTA, 10 mM Na2MoO4, 5 mM dithiothreitol, antipain (5 microgram/ml), leupeptin (5 microgram/ml), and 500 microM phenylmethylsulfonyl fluoride. After centrifugation at 15,000×g for 10 minutes, extracts were adjusted to 100 mM NaCl and 5 percent glycerol before binding. […] After centrifugation at 15,000×g for 2 minutes at 40C, tritium in supernatant was quantified by liquid scintillation spectrophotometry.

[3] = target: T3, GR (Homo sapiens, UniProt P04150); assay: hGR functional assay: CAT activity in CV-1 cells cotransfected with pRShGR alpha (or mutant) and pMTVCAT; type: cell-based; set-up: The expression vector linking the RSV LTR to full length hGR cDNA (pRShGR alpha) was designed to obtain high levels of expression; expressed in transfected cells; host or cells: CV-1 monkey kidney cells, cotransfected with pMTVCAT; conditions: 100 nM steroid, cotransfected CV-1 cells
T3 sequence (P04150 1-777): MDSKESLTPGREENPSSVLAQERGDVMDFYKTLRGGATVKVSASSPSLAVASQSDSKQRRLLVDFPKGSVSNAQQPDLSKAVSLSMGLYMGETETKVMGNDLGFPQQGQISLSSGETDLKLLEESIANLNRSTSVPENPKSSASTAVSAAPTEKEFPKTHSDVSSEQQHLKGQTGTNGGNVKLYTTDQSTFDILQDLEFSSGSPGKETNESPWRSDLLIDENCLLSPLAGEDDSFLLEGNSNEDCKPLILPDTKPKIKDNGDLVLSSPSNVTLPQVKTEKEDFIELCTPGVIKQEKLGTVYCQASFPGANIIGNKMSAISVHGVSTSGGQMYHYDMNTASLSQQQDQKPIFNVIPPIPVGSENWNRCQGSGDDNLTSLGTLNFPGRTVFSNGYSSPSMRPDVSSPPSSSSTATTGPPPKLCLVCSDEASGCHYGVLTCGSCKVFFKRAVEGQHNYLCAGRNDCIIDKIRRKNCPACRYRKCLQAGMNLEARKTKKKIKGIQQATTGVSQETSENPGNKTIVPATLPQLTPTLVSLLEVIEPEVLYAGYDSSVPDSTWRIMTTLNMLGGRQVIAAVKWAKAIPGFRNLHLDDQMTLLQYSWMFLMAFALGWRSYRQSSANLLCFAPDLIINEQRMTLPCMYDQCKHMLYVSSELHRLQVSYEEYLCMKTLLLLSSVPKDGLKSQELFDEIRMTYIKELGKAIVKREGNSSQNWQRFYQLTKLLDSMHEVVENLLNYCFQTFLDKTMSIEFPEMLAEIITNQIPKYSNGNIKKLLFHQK
Source text: The assay system and strategy used to study the expression of functional hGR from the cloned cDNA (See Experimental Section I) is shown in FIG. 11. In these experiments, a glucocorticoid-responsive promoter/enhancer element linked to a reporter gene was introduced into a receptor-negative cell. […] For our assay, we chose to use the MTV LTR fused to the sequence coding for chloramphenicol acetyltransferase (CAT) (EC2.3.1.28). […] Cotransfection of pMTVCAT (or pGMCAT) with a receptor expression plasmid provides functional receptors that allow induction of CAT activity upon treatment of the transfected cells with glucocorticoid hormone. In addition, biochemical studies such as steroid binding activity and Western blot analysis of the expressed receptors can be performed simultaneously.
The cells are then cultured in the presence or absence of hormone. CV-1 cells were used to monitor induction of CAT activity, and COS cells were used to measure steroid-binding capacity and the expression of hGR protein.
CAT assays were performed as indicated in Experimental Procedures (See Section II. F.). C, chloramphenicol; AC, 3-acetylchloramphenicol.
The levels of CAT activity were plotted as percentages of the maximal response observe in a particular experiment.
Each plasmid preparation used for transfection was purified using two consecutive CsCl-EtBr equilibrium gradients. […]

SMILES	relative affinity for hMR by competition with 5 nM [^3H]aldosterone (in words) [2]	competition for T3 binding to rTR alpha by excess compound [1]	also measured
N[C@@H](Cc1cc(I)c(Oc2cc(I)c(O)c(I)c2)c(I)c1)C(=O)O [L-thyroxine]	–	–	competition for ^125I-T3 binding to rTR alpha (in words) ([1]; in vitro translated rTR alpha): same characteristic affinities
C[C@]12C[C@H](O)[C@H]3[C@@H](CCC4=CC(=O)CC[C@@]43C)[C@@H]1CC[C@@H]2C(=O)CO [corticosterone]	very similar affinities; also recorded: compete as effectively as aldosterone itself	–	–
C[C@]12CC[C@H]3[C@@H](CCC4=CC(=O)CC[C@@]43C)[C@@H]1CC[C@@H]2C(=O)CO [deoxycorticosterone]	very similar affinities; also recorded: compete as effectively as aldosterone itself	–	–
CC(=O)[C@H]1CC[C@H]2[C@@H]3CCC4=CC(=O)CC[C@]4(C)[C@H]3CC[C@]12C [progesterone]	–	no competition	–
CC(=O)S[C@@H]1CC2=CC(=O)CC[C@]2(C)[C@H]2CC[C@@]3(C)[C@@H](CC[C@@]34CCC(=O)O4)[C@H]12 [spironolactone]	weaker binding affinity	–	–
C[C@]12CC[C@H]3[C@@H](CCC4=CC(=O)CC[C@@]43C)[C@@H]1CC[C@@H]2O [testosterone]	–	no competition	induction of CAT activity by steroid [3]: failed to induce CAT activity
C=C1CC[C@H](O)C/C1=C/C=C1\CCC[C@]2(C)[C@@H]([C@H](C)CCCC(C)C)CC[C@@H]12 [vitamin D3]	–	no competition	–
